“Also recorded” adds a separate entry of the source. Marks after values point to notes of the source that are not given here.

One data set addresses κ-opioid receptor (Homo sapiens, UniProt P41145). As to the kind of experiment: Radioligand receptor binding assay, competition with [3H]diprenorphine, κ-receptor. The note with it: for dpm: competition binding with κ-receptor, [3H]diprenorphine 0.5 nM; for dpm / inhibition rate % / inhibition at 10 µM: compound at 1 × 10^−5 M; for Ki: Ki=IC50/(1+[L]/Kd); for IC50: competition binding, κ-opioid receptor; for inhibition at 10 µM: read-out: inhibition rate %. Here is the method: (§1) The experiment test tubes are divided into total binding tubes and non-specific binding tubes, and several groups of sample tubes added with competitive ligand in different concentrations are provided. The total binding tube is added with expressed membrane receptor protein equivalent to 20 μg and [^3H] diprenorphine (0.5 nM) (1.44 Pbq/mol broad spectrum opioid antagonist, Amersham), the corresponding non-specific binding tubes are further added with 1 μM Naloxone (broad spectrum opioid antagonist, Sigma), the sample tubes are added with different concentrations compounds which are to be screened, the final volume is regulated to 100 μl with 50 mM Tris(Amresco)-HCl (pH 7.4). Incubation is performed at 30° C. for 30 min, and the tubes are placed into ice water to stop reaction. Negative pressure filter is performed in Millipore sample collector via GF/(Whatman) glass fiber filter paper. Ice cold 50 mM Tris-HCl (pH 7.4) is used to wash the filter paper for three times, each for 4 ml; Dry the filter paper and place it in 0.5 ml Eppendorff tube, and add 0.5 ml of lipophilic scintillator liquid (Reagent No. 1 Factory Of Shanghai Chemical Reagent Co. Ltd). Beckman LS 6500 multifunctional liquid scintillation counter is adopted for measuring radiation intensity, calculating inhibition rate is calculated, each concentration has three duplicated tubes, and each tube is independently tested for 3-4 times.
(§2) IC50 value is calculated by software Prism 4.0.
(§3) Ki=IC50/(1+[L]/Kd), ([L] is the concentration of added marked ligand, and Kd is equilibrium dissociation constant of radioligand).

Data set [1] concerns Kuming mice. As to the kind of experiment: Mice writhing assay (acetic acid) analgesic test. Type of data set: in vivo. The settings on record: subcutaneous injection, 0.6% acetic acid after 30 min, writhing within 15 min. The method, then:
(§4) Analgesic efficacy of the subject compound is determined by using model derived from mice hot plate method and mice writhing method (Methodology of Pharmacological Experiment, edition II, Xu Shuyun, People Medical Publishing Company, 1991).
(§5) • (1) Selection of normal mice: the test room temperature is controlled at about 22° C., temperature of the hot plate of an pain threshold dector is regulated to 55° C., the duration from the moment the mice is put on the hot plate to the moment the mice start to lick the hind paw is recorded as pain threshold value, the test is repeated twice at interval of 20 min, and the mice with average pain threshold value no more than 30 sec is qualified mice. • (2) Experimental mice: the qualified mice are randomly divided into groups each having 10 mice, and subjected to subcutaneous injection. • Each group is tested for mice pain response time once every 5, 15, 30, 50, and 60 minute after administration, and the medicine is believed to be effective which response time beyond 1 min. • Mice Writhing Assay • I-6 is administered via subcutaneous injection, then 0.6% acetic acid solution (10 ml/kg) is administered after 30 min, and the number of the mice writhing within 15 min is recorded. 3.
(In general: An intraperitoneal irritant provokes the stretching counted in writhing tests.)

In data set [2] the test system is Kuming mice. The data set is described as follows: Analgesic tolerance test (hot plate, 9 days administration). Type of data set: in vivo. The note with it: morphine 7 mg/kg subcutaneous injection. Here is the method:
Kuming mice (18-20 g, male) are selected for test, and divided into physiological saline group, morphine group, and I-6 group.
physiological saline group: subcutaneous administration, 0.2 mL for each mice.
Morphine group: Day 1-3, subcutaneous injection, 7 mg/kg • Day 4-7, subcutaneous injection, 10 mg/kg • Day 8-9, subcutaneous injection, 15 mg/kg I-6 group: Day 1-9, subcutaneous injection, 25 μg/kg
Hot plate method in mice is adopted as model, administration lasts for 9 days, analgesic effects before and after administration are determined every day, and if analgesic effect is attenuated after continuous administration of 3 days, the drug concentration will be increased, and if analgesic effect don't change, the drug concentration will not be changed.

The subject of data set [3] is Kuming mice. As to the kind of experiment: Mice hot plate method analgesic test. Type of data set: in vivo. The settings on record: for Analgesic experiment result, Mice hot plate method: subcutaneous injection, hot plate 55° C., value with range in brackets. The method, then:
as §4
Experiment Animal: Kuming Mice (Female, 18-22 g)
as §5
A general note: Hot-plate and tail-flick tests time the reaction to a heat stimulus.

In another data set the target is μ-opioid receptor (Homo sapiens, UniProt P35372). The data set is described as follows: Radioligand receptor binding assay, competition with [3H]diprenorphine, μ-receptor. The settings on record: for Ki: Ki=IC50/(1+[L]/Kd); for IC50: competition binding, μ-opioid receptor; for receptor selectivity μKi/κKi: ratio of μ Ki to κ Ki; for inhibition at 1 µM: read-out: inhibition rate of medicine at 1 × 10^−6 M (μ). The method, then: as §1, §2, §3

[4] abbreviates: 1 × 10^−6 M, printed in the IC50 (M) μ column.

`COc1cc2c(cc1OC)C(CN1CCCC1)N(C(=O)C1CC(=O)c3ccc(Cl)cc31)CC2` (centres unmarked) [I-30, 6,7-dimethoxy-1-(pyrrolidine-1-methyl)-2-(6-chloro-2,3-dihydro-inden-3-keto-1-carbonyl)-1,2,3,4-tetrahydroisoquinoline]: at κ-opioid receptor, the dpm was determined as 2269.71 dpm and the inhibition rate % was found to be 40.6%.
In the case of `CN1CC[C@]23c4c5ccc(O)c4O[C@H]2[C@@H](O)C=C[C@H]3[C@H]1C5` [Morphine, morphine], the “Analgesic experiment result, Mice writhing assay” value in the data set on Kuming mice [1] was 0.840(0.558-1.265) mg/kg. For the same compound, the “analgesic effect on continuous administration” value in the data set with Kuming mice [2] (Day 3) was “no significant analgesic effect; also recorded: tolerance and efficacy of zero”; in the data set with Kuming mice [2] (from Day 2), “attenuated analgesic effect from Day 2”. Moreover, the “Analgesic experiment result, Mice hot plate method” value with Kuming mice [3] is recorded as 6.949(5.682-8.500) mg/kg.
On to `COc1cc2c(cc1OC)C(C(=O)N1CCc3ccccc3C1CN1CCCC1)CC2=O` (centres unmarked) [I-5, 1-(pyrrolidine-1-methyl)-2-(5,6-dimethoxy-2,3-dihydro-inden-3-keto-1-carbonyl)-1,2,3,4-tetrahydroisoquinoline], for which, at κ-opioid receptor, affinity was put at a Ki of 1.34 nM, the dpm was 260.58 dpm, the concentration for half-maximal inhibition (IC50) was 4.69 nM and the inhibition at 10 µM came out at 99.5%. On μ-opioid receptor, affinity was put at a Ki of 106 nM, the IC50 was found to be 318 nM and the “receptor selectivity μKi/κKi” value stood at 79.
Take `O=C1CC(C(=O)N2CCc3ccccc3C2CN2CCCC2)c2ccccc21` (centres unmarked) [I-1, 1-(pyrrolidine-1-methyl)-2-(2,3-dihydro-inden-3-keto-1-carbonyl)-1,2,3,4-tetrahydroisoquinoline]: the “Analgesic experiment result, Mice writhing assay” value in the data set with Kuming mice [1] is recorded as 26.303(16.807-41.165) ug/kg. Moreover, at κ-opioid receptor, the inhibition constant (Ki) came to 0.438 nM, the dpm amounted to 212.91 dpm, the IC50 is 1.53 nM and the inhibition at 10 µM was 100%. For the same compound, in the data set with Kuming mice [3] (mice hot plate method and mice writhing method), the “analgesic efficacy compared with morphine” value was “powerful analgesic efficacy”. Also, the “Analgesic experiment result, Mice hot plate method” value in the data set on Kuming mice [3] is 44.147(25.134-77.545) ug/kg. Moreover, the inhibition at 1 µM at μ-opioid receptor (setting [4]) was determined as 18.7%.
For the compound `COc1ccc2c(c1)C(C(=O)N1CCc3ccccc3C1CN1CCCC1)CC2=O` (centres unmarked) [I-13, 1-(pyrrolidine-1-methyl)-2-(6-methoxy-2,3-dihydro-inden-3-keto-1-carbonyl)-1,2,3,4-tetrahydroisoquinoline], at κ-opioid receptor, the inhibitory constant (Ki) came to 0.909 nM, the dpm is 211.54 dpm, the concentration for half-maximal inhibition (IC50) is 3.18 nM and the inhibition at 10 µM is 100%. For the same compound, at μ-opioid receptor, the inhibition constant Ki worked out at 133 nM, the half-maximal inhibitory concentration (IC50) is 399 nM and the “receptor selectivity μKi/κKi” value is 146.
At κ-opioid receptor, `COc1ccc2c(c1)C(CN1CCCC1)N(C(=O)C1CC(=O)c3cc(OC)c(OC)cc31)CC2` (centres unmarked) [I-15, 7-methoxy-1-(pyrrolidine-1-methyl)-2-(5,6-dimethoxy-2,3-dihydro-inden-3-keto-1-carbonyl)-1,2,3,4-tetrahydroisoquinoline] gave a dpm of 820.16 dpm and an inhibition rate % of 82.3%. Moreover, the “inhibition rate of medicine at 1 × 10^−6 M (μ)” value on μ-opioid receptor (setting [4]) is reported as 11.7% (^−6)^a.
With `COc1ccc2c(c1)C(C(=O)N1CCc3cc(OC)c(OC)cc3C1CN1CCCC1)CC2=O` (centres unmarked) [I-31, 6,7-dimethoxy-1-(pyrrolidine-1-methyl)-2-(6-methoxy-2,3-dihydro-inden-3-keto-1-carbonyl)-1,2,3,4-tetrahydroisoquinoline], on κ-opioid receptor, the dpm stood at 3271.85 dpm and the inhibition rate % was found to be 11.2%.
As for `COc1cc2c(cc1OC)C(CN1CCCC1)N(C(=O)C1CC(=O)c3ccccc31)CC2` (centres unmarked) [I-26, 6,7-dimethoxy-1-(pyrrolidine-1-methyl)-2-(2,3-dihydro-inden-3-keto-1-carbonyl)-1,2,3,4-tetrahydroisoquinoline], on κ-opioid receptor, the dpm is on record as 1883.77 dpm and the inhibition rate % is 51.9%.
`COc1cc2c(cc1OC)C(CN1CCCC1)N(C(=O)C1CC(=O)c3cc(OC)c(OC)cc31)CC2` (centres unmarked) [I-27, 6,7-dimethoxy-1-(pyrrolidine-1-methyl)-2-(5,6-dimethoxy-2,3-dihydro-inden-3-keto-1-carbonyl)-1,2,3,4-tetrahydroisoquinoline]: on κ-opioid receptor, the dpm is 5257.44 dpm and the inhibition rate % was found to be 0%.
At κ-opioid receptor, `COc1ccc2c(c1)C(C(=O)N1CCc3ccc(OC)cc3C1CN1CCCC1)CC2=O` (centres unmarked) [I-19, 7-methoxy-1-(pyrrolidine-1-methyl)-2-(6-methoxy-2,3-dihydro-inden-3-keto-1-carbonyl)-1,2,3,4-tetrahydroisoquinoline] had a dpm of 799.91 dpm and an inhibition rate % of 82.9%.
Consider `COc1ccc2c(c1)C(CN1CCCC1)N(C(=O)C1CC(=O)c3ccccc31)CC2` (centres unmarked) [I-14, 7-methoxy-1-(pyrrolidine-1-methyl)-2-(2,3-dihydro-inden-3-keto-1-carbonyl)-1,2,3,4-tetrahydroisoquinoline], for which, on κ-opioid receptor, affinity was put at a Ki of 270 nM, the dpm is on record as 972.69 dpm, the 50% inhibitory concentration (IC50) stood at 912 nM and the inhibition at 10 µM stood at 77.3%. Besides, the inhibition at 1 µM on μ-opioid receptor (setting [4]) came to 14.6%.
Regarding `COc1ccc2c(c1)C(CN1CCCC1)N(C(=O)C1CC(=O)c3ccc(Cl)cc31)CC2` (centres unmarked) [I-18, 7-methoxy-1-(pyrrolidine-1-methyl)-2-(6-chloro-2,3-dihydro-inden-3-keto-1-carbonyl)-1,2,3,4-tetrahydroisoquinoline], the melting point fell in the range of 151 to 153 °C. On κ-opioid receptor, the inhibitory constant (Ki) amounted to 17.1 nM, the dpm turned out to be 281.00 dpm, the IC50 worked out at 59.9 nM and the inhibition at 10 µM amounted to 100%. The inhibition at 1 µM at μ-opioid receptor (setting [4]) was determined as 14%.

One may read the Ki as a dissociation constant, usually derived from enzyme kinetics or from competition with a known ligand. In general, IC50 refers to the midpoint of a concentration-inhibition curve. Read a low IC50 as inhibition by little substance. What is called inhibition is how much of the control response was suppressed. One may read the melting point as the temperature of the solid-liquid transition.

The values are drawn from US7820692B2, “Tetrahydro isoquinoline derivatives, preparation methods and medicinal uses thereof” (China Pharmaceutical University, priority 2006, dated 2010).
